Assay results: ChEMBL document CHEMBL1122581, “Antiviral activity of C-5 substituted tubercidin analogues” (1984)
≈ marks a conversion by molar mass, not a printed value.

Tested on: Vaccinia virus
Experiment: Concentration required to reduce vaccinia virus induced cytopathogenicity by 50% in primary rabbit kidney cell cultures.
Format: functional
Conditions: Orthopoxvirus vaccinia

How did the MIC turn out when Nc1ncnc2c1c(I)cn2[C@@H]1O[C@H](CO)[C@@H](O)[C@H]1O [IODOTUBERCIDIN] was run?
The MIC was 0.07 µg/mL (≈ 0.179 µM).

How did the MIC turn out when Nc1ncnc2c1ccn2[C@@H]1O[C@H](CO)[C@@H](O)[C@H]1O [TUBERCIDIN] was run?
The MIC was 0.02 µg/mL (≈ 0.0751 µM).

With Nc1nccc2c1ncn2[C@@H]1C[C@H](CO)[C@H](O)C1O (some centres undefined) as the molecule, how does the MIC read?
Its MIC is 0.1 µg/mL (≈ 0.378 µM).

With NC(=O)c1ncn([C@@H]2O[C@H](CO)[C@@H](O)[C@H]2O)n1 [RIBAVIRIN] as the molecule, how does the MIC read?
Its MIC is 10 µg/mL (≈ 40.9 µM).

Which MIC does the source give for Nc1ncnc2c1cc(Br)n2C1O[C@H](CO)[C@@H](O)[C@H]1O (some centres undefined) here?
The MIC was 300 µg/mL (≈ 869 µM).

N#Cc1cn([C@@H]2O[C@H](CO)[C@@H](O)[C@H]2O)c2ncnc(N)c12 [TOYOCAMYCIN] was tested. Which MIC did it give?
The MIC was greater than 0.01 µg/mL.

Which MIC does the source give for Nc1ncnc2c1c(Br)c(Br)n2C1O[C@H](CO)[C@@H](O)[C@H]1O (some centres undefined) here?
The MIC was 20 µg/mL (≈ 47.2 µM).

NC(=O)c1cn([C@@H]2O[C@H](CO)[C@@H](O)[C@H]2O)c2ncnc(N)c12 [SANGIVAMYCIN] was tested. Which MIC did it give?
Its MIC is 0.02 µg/mL (≈ 0.0647 µM).

With COC(C)c1cn(C2O[C@H](CO)[C@@H](O)[C@H]2O)c2ncnc(N)c12 (some centres undefined) as the molecule, how does the MIC read?
Its MIC is 0.7 µg/mL (≈ 2.16 µM).

For Nc1ncnc2c1c(CCCO)cn2C1O[C@H](CO)[C@@H](O)[C@H]1O (some centres undefined), which MIC is on record?
The MIC was 2 µg/mL (≈ 6.17 µM).

How did the MIC turn out when Nc1ncnc2c1c(Cl)cn2[C@@H]1O[C@H](CO)[C@@H](O)[C@H]1O was run?
Its MIC is greater than 1 µg/mL.

Which MIC does the source give for C/C=C/Cc1cn(C2O[C@H](CO)[C@@H](O)[C@H]2O)c2ncnc(N)c12 (some centres undefined) here?
Its MIC is 0.7 µg/mL (≈ 2.19 µM).

Which MIC does the source give for N#C/C=C/c1cn(C2O[C@H](CO)[C@@H](O)[C@H]2O)c2ncnc(N)c12 (some centres undefined) here?
The MIC was 0.7 µg/mL (≈ 2.21 µM).

Which MIC does the source give for CCCCc1cn(C2O[C@H](CO)[C@@H](O)[C@H]2O)c2ncnc(N)c12 (some centres undefined) here?
Its MIC is greater than 40 µg/mL.

Nc1ncnc2c1c(/C=C/Br)cn2C1O[C@H](CO)[C@@H](O)[C@H]1O (some centres undefined) was tested. Which MIC did it give?
Its MIC is greater than 1 µg/mL.

For Nc1ncnc2c1c(Cl)c(Cl)n2C1O[C@H](CO)[C@@H](O)[C@H]1O (some centres undefined), which MIC is on record?
The MIC was greater than 40 µg/mL.

Which MIC does the source give for Nc1ncnc2c1c(Br)cn2[C@@H]1O[C@H](CO)[C@@H](O)[C@H]1O here?
Its MIC is 0.2 µg/mL (≈ 0.579 µM).

How did the MIC turn out when CC(O)c1cn(C2O[C@H](CO)[C@@H](O)[C@H]2O)c2ncnc(N)c12 (some centres undefined) was run?
The MIC was 0.7 µg/mL (≈ 2.26 µM).

Tested on: Vaccinia virus
Experiment: Compound was tested for the concentration required to reduce vaccinia virus induced cytopathogenicity by 50% in primary rabbit kidney cell cultures
Format: functional
Conditions: Orthopoxvirus vaccinia

With Nc1ncnc2c1ncn2C[C@@H](O)CO as the molecule, how does the MIC read?
Its MIC is 70 µg/mL (≈ 335 µM).
